Measured values reported in patent US4552879A, “Benzoheterocyclic compounds and pharmaceutical composition thereof” (Otsuka Pharmaceutical Co., Ltd., priority 1980, dated 1985).
≈ marks a conversion by molar mass, not a printed value. Where two headings read alike, the source gives them in different places.

Experiments:
Assay type in all cases: cell-based
[1] = system: Staphylococcus aureus E-46; test: Minimum inhibitory concentration, serial dilution method on agar plate
[2] = system: Staphylococcus aureus IFO 3761; test: as above
[3] = system: Staphylococcus aureus ATCC 12692; test: as above
[4] = system: Micrococcus luteus ATCC 4698; test: as above
Proteus rettgeri NIH 96 = test: as above; settings: Providencia rettgeri
[5] = system: Staphylococcus aureus B-5; test: as above
[6] = system: Staphylococcus aureus B-70; test: as above
[7] = system: Bacillus circuluns ATCC 8241; test: as above
[8] = system: Bacillus subtilis PCI 219; test: as above
Sarcina lutea PCI 1001 = test: as above
Bacillus anthracis = test: microbe, parasite or virus in culture
[9] = system: Staphylococcus aureus 90124; test: Minimum inhibitory concentration, serial dilution method on agar plate
[10] = system: Staphylococcus aureus Newmann; test: as above
[11] = system: Pseudomonas aeruginosa E-2; test: as above; settings: Pseudomonas aeruginosa, read-out: Minimum Inhibitory Concentration
[12] = system: Peptococcus asaccharolyticus WAL 3218; test: as above; settings: Peptoniphilus asaccharolyticus
[13] = system: Corynebacterium diphteriae; test: as above
[14] = system: Salmonella typhi 0-901 (NCTC 8393); test: as above; settings: Salmonella enterica
[15] = system: Escherichia Coli NIHJ JC-2 (IFO 12734); test: as above; settings: read-out: Minimum Inhibitory Concentration
[16] = system: Staphylococcus aureus 50774; test: as above
Klebsiella pneumoniae = test: as above; settings: read-out: Minimum Inhibitory Concentration
[17] = system: Bacillus cereus ATCC 11778; test: as above
[18] = system: Staphylococcus aureus FDA 209 P; test: as above; settings: Staphylococcus aureus, read-out: Minimum Inhibitory Concentration
[19] = system: Staphylococcus epidermidis ATCC 12228; test: as above
Pseudomonas putida 12996 = test: as above; settings: read-out: Minimum Inhibitory Concentration
[20] = system: Bacillus pumilus IFO 3813; test: as above
[21] = system: Micrococcus lysodeikticus IAM 1313; test: as above; settings: Micrococcus luteus
[22] = system: Staphylococcus aureus No. 286; test: as above
Bacillus cereus IFO 3446 = test: as above
[23] = system: Pseudomonas aeruginosa ATCC 10145; test: as above; settings: Pseudomonas aeruginosa, read-out: Minimum Inhibitory Concentration
[24] = system: Serratia marcescens IFO 12648; test: as above; settings: read-out: Minimum Inhibitory Concentration
[25] = system: Staphyloccus aureus Smith; test: as above
[26] = system: Bacteroides thetaiotaomicron WAL 2926; test: as above
[27] = system: Micrococcus flavus ATCC 10240a; test: as above; settings: ATCC10240A
[28] = system: Staphylococcus aureus IFO 3060; test: as above

## CC1CCc2c(N3CCC(O)CC3)c(F)cc3c(=O)c(C(=O)O)cn1c23 (centres unmarked) [Compound 1, 9-Fluoro-8-(4-hydroxy-1-piperidyl)-5-methyl-6,7-dihydro-1-oxo-1H,5H-benzo[ij]quinolizine-2-carboxylic acid]
[1]; 1×10^6 cells/ml
  Minimum Inhibitory Concentration: 0.05 µg/mL
[1]; Staphylococcus aureus, E46, 1×10^8 cells/ml
  MIC: 0.05 µg/mL (≈ 0.139 µM)
[2]; IFO3761, 1×10^6 cells/ml
  MIC: 0.024 µg/mL (≈ 0.0666 µM)
[2]; IFO3761, 1×10^8 cells/ml
  MIC: 0.1 µg/mL (≈ 0.277 µM)
[3]; 1×10^6 cells/ml
  Minimum Inhibitory Concentration: 0.05 µg/mL
[3]; Staphylococcus aureus, ATCC12692, 1×10^8 cells/ml
  MIC: 0.05 µg/mL (≈ 0.139 µM)
[4]; ATCC4698, 1×10^6 cells/ml
  MIC: 0.1 µg/mL (≈ 0.277 µM)
[4]; ATCC4698, 1×10^8 cells/ml
  MIC: 0.2 µg/mL (≈ 0.555 µM)
Proteus rettgeri NIH 96; NIH96, read-out: Minimum Inhibitory Concentration, 1×10^6 cells/ml
  MIC: 0.1 µg/mL (≈ 0.277 µM)
Proteus rettgeri NIH 96; NIH96, read-out: Minimum Inhibitory Concentration, 1×10^8 cells/ml
  MIC: 0.2 µg/mL (≈ 0.555 µM)
[5]; 1×10^6 cells/ml
  Minimum Inhibitory Concentration: 0.024 µg/mL
[5]; Staphylococcus aureus, B5, 1×10^8 cells/ml
  MIC: 0.024 µg/mL (≈ 0.0666 µM)
[6]; B70, 1×10^6 cells/ml
  MIC: 0.024 µg/mL (≈ 0.0666 µM)
[6]; B70, 1×10^8 cells/ml
  MIC: 0.05 µg/mL (≈ 0.139 µM)
[7]; 1×10^6 cells/ml
  Minimum Inhibitory Concentration: 0.024 µg/mL
[7]; Bacillus, ATCC8241, 1×10^8 cells/ml
  MIC: 0.024 µg/mL (≈ 0.0666 µM)
[8]; 1×10^6 cells/ml
  Minimum Inhibitory Concentration: 0.024 µg/mL
[8]; Bacillus subtilis, PCI219, 1×10^8 cells/ml
  MIC: 0.024 µg/mL (≈ 0.0666 µM)
Sarcina lutea PCI 1001; 1×10^6 cells/ml
  Minimum Inhibitory Concentration: 0.39 µg/mL
Sarcina lutea PCI 1001; Micrococcus luteus, PCI1001, 1×10^8 cells/ml
  MIC: 0.39 µg/mL (≈ 1.08 µM)
Bacillus anthracis; 1×10^6 cells/ml
  Minimum Inhibitory Concentration: 0.05 µg/mL
Bacillus anthracis; Bacillus anthracis, read-out: Minimum Inhibitory Concentration
  MIC: 0.05 µg/mL (≈ 0.139 µM)
[9]; 1×10^6 cells/ml
  Minimum Inhibitory Concentration: 0.10 µg/mL
[9]; Staphylococcus aureus, 90124, 1×10^8 cells/ml
  MIC: 0.1 µg/mL (≈ 0.277 µM)
[10]; 1×10^6 cells/ml
  MIC: 0.024 µg/mL (≈ 0.0666 µM)
[10]; 1×10^8 cells/ml
  MIC: 0.05 µg/mL (≈ 0.139 µM)
[11]; E2, 1×10^6 cells/ml
  MIC: 6.25 µg/mL (≈ 17.3 µM)
[11]; E2, 1×10^8 cells/ml
  MIC: 6.25 µg/mL (≈ 17.3 µM)
[12]; WAL3218, 1×10^6 cells/ml
  MIC: 0.78 µg/mL (≈ 2.16 µM)
[12]; WAL3218, 1×10^8 cells/ml
  MIC: 1.56 µg/mL (≈ 4.33 µM)
[13]; 1×10^6 cells/ml
  Minimum Inhibitory Concentration: 0.05 µg/mL
[13]; Corynebacterium, 1×10^8 cells/ml
  MIC: 0.05 µg/mL (≈ 0.139 µM)
[14]; read-out: Minimum Inhibitory Concentration, 1×10^6 cells/ml
  MIC: 0.05 µg/mL (≈ 0.139 µM)
[14]; read-out: Minimum Inhibitory Concentration, 1×10^8 cells/ml
  MIC: 0.1 µg/mL (≈ 0.277 µM)
[15]; 1×10^6 cells/ml
  MIC: 0.39 µg/mL (≈ 1.08 µM)
[15]; 1×10^8 cells/ml
  MIC: 0.39 µg/mL (≈ 1.08 µM)
[16]; 1×10^6 cells/ml
  Minimum Inhibitory Concentration: 0.05 µg/mL
[16]; Staphylococcus aureus, 50774, 1×10^8 cells/ml
  MIC: 0.05 µg/mL (≈ 0.139 µM)
Klebsiella pneumoniae; 1×10^6 cells/ml
  MIC: 0.39 µg/mL (≈ 1.08 µM)
Klebsiella pneumoniae; 1×10^8 cells/ml
  MIC: 0.39 µg/mL (≈ 1.08 µM)
[17]; 1×10^6 cells/ml
  Minimum Inhibitory Concentration: 0.10 µg/mL
[17]; Bacillus cereus, ATCC11778, 1×10^8 cells/ml
  MIC: 0.1 µg/mL (≈ 0.277 µM)
[18]; FDA209, 1×10^6 cells/ml
  MIC: ≤ 0.025 µg/mL
[18]; FDA209, 1×10^8 cells/ml
  MIC: ≤ 0.05 µg/mL
[19]; 1×10^6 cells/ml
  Minimum Inhibitory Concentration: 0.05 µg/mL
[19]; Staphylococcus epidermidis, ATCC12228, 1×10^8 cells/ml
  MIC: 0.05 µg/mL (≈ 0.139 µM)
Pseudomonas putida 12996; Pseudomonas putida, 12996, 1×10^6 cells/ml
  MIC: 6.25 µg/mL (≈ 17.3 µM)
Pseudomonas putida 12996; Pseudomonas putida, 12996, 1×10^8 cells/ml
  MIC: 6.25 µg/mL (≈ 17.3 µM)
[20]; 1×10^6 cells/ml
  Minimum Inhibitory Concentration: 0.024 µg/mL
[20]; Bacillus pumilus, IFO3813, 1×10^8 cells/ml
  MIC: 0.024 µg/mL (≈ 0.0666 µM)
[21]; IAM1313, 1×10^6 cells/ml
  MIC: 0.1 µg/mL (≈ 0.277 µM)
[21]; IAM1313, 1×10^8 cells/ml
  MIC: 0.2 µg/mL (≈ 0.555 µM)
[22]; NO.286, 1×10^6 cells/ml
  MIC: 0.05 µg/mL (≈ 0.139 µM)
[22]; NO.286, 1×10^8 cells/ml
  MIC: 0.1 µg/mL (≈ 0.277 µM)
Bacillus cereus IFO 3446; 1×10^6 cells/ml
  Minimum Inhibitory Concentration: 0.10 µg/mL
Bacillus cereus IFO 3446; Bacillus cereus, IFO3446, 1×10^8 cells/ml
  MIC: 0.1 µg/mL (≈ 0.277 µM)
[23]; ATCC10145, 1×10^6 cells/ml
  MIC: 3.13 µg/mL (≈ 8.69 µM)
[23]; ATCC10145, 1×10^8 cells/ml
  MIC: 3.13 µg/mL (≈ 8.69 µM)
[24]; IFO12648, 1×10^6 cells/ml
  MIC: 0.78 µg/mL (≈ 2.16 µM)
[24]; IFO12648, 1×10^8 cells/ml
  MIC: 1.56 µg/mL (≈ 4.33 µM)
[25]; 1×10^6 cells/ml
  Minimum Inhibitory Concentration: 0.05 µg/mL
[25]; 1×10^8 cells/ml
  MIC: 0.05 µg/mL (≈ 0.139 µM)
[26]; WAL2926, 1×10^6 cells/ml
  MIC: 1.56 µg/mL (≈ 4.33 µM)
[26]; WAL2926, 1×10^8 cells/ml
  MIC: 6.25 µg/mL (≈ 17.3 µM)
[27]; 1×10^6 cells/ml
  MIC: 0.2 µg/mL (≈ 0.555 µM)
[27]; 1×10^8 cells/ml
  MIC: 0.39 µg/mL (≈ 1.08 µM)
[28]; IFO3060, 1×10^6 cells/ml
  MIC: 0.05 µg/mL (≈ 0.139 µM)
[28]; IFO3060, 1×10^8 cells/ml
  MIC: 0.1 µg/mL (≈ 0.277 µM)
